Test results from patent publication US20150133426A1, “SUBSTITUTED PYRROLOPYRIMIDINES” (BAYER PHARMA AKTIENGESELLSCHAFT, priority 2012, published 2015).

Target: T1, human full-length MKNK1 (Homo sapiens, UniProt Q9BUB5, T385D)
T1 construct: purchased Carna Biosciences 02-145; host or cells: insect cells, baculovirus expression system
Experiment: MKNK1 kinase high ATP assay (TR-FRET)
Format: biochemical
Conditions: high ATP (2 mM), 15 min preincubation with enzyme, GST-MKNK1 (T344D)
Outline: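 GST-tagged full-length human MKNK1 (aa 1-424, T344D), baculovirus-expressed, preincubated 15 min with compound, then reacted 30 min at 22 °C with 2 mM ATP and 0.06 µM biotinylated peptide (final).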

T1 sequence (Q9BUB5 1-424 isoform Q9BUB5-2 T344D): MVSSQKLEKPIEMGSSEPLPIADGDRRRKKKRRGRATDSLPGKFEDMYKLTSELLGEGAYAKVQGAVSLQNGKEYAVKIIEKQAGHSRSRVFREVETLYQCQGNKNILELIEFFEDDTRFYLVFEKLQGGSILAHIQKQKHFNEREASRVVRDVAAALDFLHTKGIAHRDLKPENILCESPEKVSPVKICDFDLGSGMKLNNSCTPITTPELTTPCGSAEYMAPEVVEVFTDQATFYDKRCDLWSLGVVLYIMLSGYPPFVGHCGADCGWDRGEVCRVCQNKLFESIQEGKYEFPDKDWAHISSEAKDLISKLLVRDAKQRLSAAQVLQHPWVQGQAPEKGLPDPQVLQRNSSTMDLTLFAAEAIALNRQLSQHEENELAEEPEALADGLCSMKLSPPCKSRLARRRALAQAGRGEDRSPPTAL

Row | Compound | IC50 [nM]
1 | COc1ccc(F)cc1Nc1ncnc2[nH]c3c(c12)CC(C(=O)NCCC(F)(F)F)CC3 (racemic) [Example 198, (RS)-4-[(5-Fluoro-2-methoxyphenyl)amino]-N-(3,3,3-trifluoropropyl)-6,7,8,9-tetrahydro-5H-pyrimido[4,5-b]indole-6-carboxamide] | 249
2 | O=C(Nc1ccccc1)C1CCc2[nH]c3ncnc(Nc4ccccc4OC4CCCC4)c3c2C1 (racemic) [Example 193, (RS)-4-{[2-(Cyclopentyloxy)phenyl]amino}-N-phenyl-6,7,8,9-tetrahydro-5H-pyrimido[4,5-b]indole-6-carboxamide] | 2890
3 | CS(=O)(=O)CCCNC(=O)C1CCc2[nH]c3ncnc(Nc4ccc5c(c4)COC5=O)c3c2C1 (racemic) [Example 45, (RS)—N-[3-(Methylsulfonyl)propyl]-4-[(1-oxo-1,3-dihydro-2-benzofuran-5-yl)amino]-6,7,8,9-tetrahydro-5H-pyrimido[4,5-b]indole-6-carboxamide] | 82
4 | O=C(O)C1CCc2[nH]c3ncnc(N4CCc5ccccc54)c3c2C1 (racemic) [Example 185, (RS)-4-(2,3-Dihydro-1H-indol-1-yl)-6,7,8,9-tetrahydro-5H-pyrimido[4,5-b]indole-6-carboxylic acid] | 8990
5 | CS(=O)(=O)CCCNC(=O)C1CCc2[nH]c3ncnc(Nc4cc(OC(F)(F)F)ccc4F)c3c2C1 (racemic) [Example 62, (RS)-4-{[2-Fluoro-5-(trifluoromethoxy)phenyl]amino}-N-[3-(methylsulfonyl)propyl]-6,7,8,9-tetrahydro-5H-pyrimido[4,5-b]indole-6-carboxamide] | 677
6 | CS(=O)(=O)CCCNC(=O)C1CCc2[nH]c3ncnc(Nc4cccc(F)c4F)c3c2C1 (racemic) [Example 77, (RS)-4-[(2,3-Difluorophenyl)amino]-N-[3-(methylsulfonyl)propyl]-6,7,8,9-tetrahydro-5H-pyrimido[4,5-b]indole-6-carboxamide] | 3630
7 | Cc1nc2c(Nc3ncnc4[nH]c5c(c34)CC(C(=O)NCCCS(C)(=O)=O)CC5)cccc2[nH]1 (racemic) [Example 169, (RS)-4-[(2-Methyl-1H-benzimidazol-4-yl)amino]-N-[3-(methylsulfonyl)propyl]-6,7,8,9-tetrahydro-5H-pyrimido[4,5-b]indole-6-carboxamide] | 2700
8 | COc1ccc(C(F)(F)F)cc1Nc1ncnc2[nH]c3c(c12)CC(C(=O)NC(C)C)CC3 (racemic) [Example 213, (RS)-4-{[2-Methoxy-5-(trifluoromethyl)phenyl]amino}-N-(propan-2-yl)-6,7,8,9-tetrahydro-5H-pyrimido[4,5-b]indole-6-carboxamide] | 103
9 | CC(C)Oc1ccc(Br)cc1Nc1ncnc2[nH]c3c(c12)CCCC3 [Example 127] | 6270
10 | CC(C)Oc1ccc(Cl)cc1Nc1ncnc2[nH]c3c(c12)CC(F)(F)CC3 [Example 143] | 407
11 | CC(C)Oc1cc(F)ccc1Nc1ncnc2[nH]c3c(c12)C[S+]([O-])CC3 (racemic) [Example 86, (RS)—N-(4-Fluoro-2-isopropoxyphenyl)-5,7,8,9-tetrahydrothiopyrano[3′,4′:4,5]pyrrolo[2,3-d]pyrimidin-4-amine 6-oxide] | 220
12 | COc1ccc(C(F)(F)F)cc1Nc1ncnc2[nH]c3c(c12)CC(C(=O)NCCCS(C)(=O)=O)CC3 (racemic) [Example 67, (RS)-4-{[2-Methoxy-5-(trifluoromethyl)phenyl]amino}-N-[3-(methylsulfonyl)propyl]-6,7,8,9-tetrahydro-5H-pyrimido[4,5-b]indole-6-carboxamide] | 28
13 | CCOC(=O)C1CCc2[nH]c3ncnc(Nc4ccc(F)cc4OCCO)c3c2C1 (racemic) [Example 176, (RS)-Ethyl 4-{[4-fluoro-2-(2-hydroxyethoxy)phenyl]amino}-6,7,8,9-tetrahydro-5H-pyrimido[4,5-b]indole-6-carboxylate] | 174
14 | COc1cc2[nH]ncc2cc1Nc1ncnc2[nH]c3c(c12)CCCC3 [Example 112] | 6
15 | COc1cc(Cl)c(C)cc1Nc1ncnc2[nH]c3c(c12)CC(C(=O)NCCCS(C)(=O)=O)CC3 (racemic) [Example 162, (RS)-4-[(4-Chloro-2-methoxy-5-methylphenyl)amino]-N-[3-(methylsulfonyl)propyl]-6,7,8,9-tetrahydro-5H-pyrimido[4,5-b]indole-6-carboxamide] | 120
16 | CS(=O)(=O)CCCNC(=O)C1CCc2[nH]c3ncnc(Nc4ccc(OC(F)F)cc4)c3c2C1 (racemic) [Example 31, (RS)-4-{[4-(Difluoromethoxy)phenyl]amino}-N-[3-(methylsulfonyl)propyl]-6,7,8,9-tetrahydro-5H-pyrimido[4,5-b]indole-6-carboxamide] | 2750
17 | CC1(C)Cc2cccc(Nc3ncnc4[nH]c5c(c34)CC(C(=O)NCCCS(C)(=O)=O)CC5)c2O1 (racemic) [Example 80, (RS)-4-[(2,2-Dimethyl-2,3-dihydro-1-benzofuran-7-yl)amino]-N-[3-(methylsulfonyl)propyl]-6,7,8,9-tetrahydro-5H-pyrimido[4,5-b]indole-6-carboxamide] | 494

Row | Compound | IC50 [nM]
18 | COc1ccc(F)cc1Nc1ncnc2[nH]c3c(c12)CC(C(=O)NCc1ccccc1)CC3 (racemic) [Example 200, (RS)—N-Benzyl-4-[(5-fluoro-2-methoxyphenyl)amino]-6,7,8,9-tetrahydro-5H-pyrimido[4,5-b]indole-6-carboxamide] | 100
19 | COc1ccc(C(F)(F)F)cc1Nc1ncnc2[nH]c3c(c12)CC(C(=O)Nc1ccccc1)CC3 (racemic) [Example 214, (RS)-4-{[2-Methoxy-5-(trifluoromethyl)phenyl]amino}-N-phenyl-6,7,8,9-tetrahydro-5H-pyrimido[4,5-b]indole-6-carboxamide] | 3400
20 | O=C(O)C1CCc2[nH]c3ncnc(Nc4ccccc4OC4CCCC4)c3c2C1 (racemic) [Example 180, (RS)-4-{[2-(Cyclopentyloxy)phenyl]amino}-6,7,8,9-tetrahydro-5H-pyrimido[4,5-b]indole-6-carboxylic acid] | 2890
21 | COc1ccc(C(F)(F)F)cc1Nc1ncnc2[nH]c3c(c12)CC(F)(F)CC3 [Example 145] | ≥ 20000
22 | COc1cc(F)c(F)cc1Nc1ncnc2[nH]c3c(c12)CC(C(=O)NCCCS(C)(=O)=O)CC3 (racemic) [Example 161, (RS)-4-[(4,5-Difluoro-2-methoxyphenyl)amino]-N-[3-(methylsulfonyl)propyl]-6,7,8,9-tetrahydro-5H-pyrimido[4,5-b]indole-6-carboxamide] | 35
23 | Clc1ccc2c(c1)CCN2c1ncnc2[nH]c3c(c12)CCCC3 [Example 122] | 4290
24 | O=c1[nH]c2cc(Cl)c(Nc3ncnc4[nH]c5c(c34)CCCC5)cc2s1 [Example 236, 5-Chloro-6-(6,7,8,9-tetrahydro-5H-pyrimido[4,5-b]indol-4-ylamino)-1,3-benzothiazol-2(3H)-one] | 55
25 | COc1cc2[nH]ncc2cc1Nc1ncnc2[nH]c3c(c12)CC(C(=O)NCc1cccc(C(F)(F)F)c1)CC3 (racemic) [Example 220, (RS)-4-[(6-Methoxy-1H-indazol-5-yl)amino]-N-[3-(trifluoromethyl)benzyl]-6,7,8,9-tetrahydro-5H-pyrimido[4,5-b]indole-6-carboxamide] | 3
26 | COc1ccc(OC)c(Nc2ncnc3[nH]c4c(c23)CC(C(=O)NCCCS(C)(=O)=O)CC4)c1 (racemic) [Example 42, (RS)-4-[(2,5-Dimethoxyphenyl)amino]-N-[3-(methylsulfonyl)propyl]-6,7,8,9-tetrahydro-5H-pyrimido[4,5-b]indole-6-carboxamide] | 615
27 | CS(=O)(=O)CCCNC(=O)C1CCc2[nH]c3ncnc(Nc4ccccc4N4CCOCC4)c3c2C1 (racemic) [Example 30, (RS)—N-[3-(Methylsulfonyl)propyl]-4-{[2-(morpholin-4-yl)phenyl]amino}-6,7,8,9-tetrahydro-5H-pyrimido[4,5-b]indole-6-carboxamide] | 52
28 | c1ccc2c(c1)CCN2c1ncnc2[nH]c3c(c12)CCCC3 [Example 120] | 8350
29 | COc1cc(Cl)c(Cl)cc1Nc1ncnc2[nH]c3c(c12)CC(C(=O)Nc1ccccc1)CC3 (racemic) [Example 22, (RS)-4-[(4,5-Dichloro-2-methoxyphenyl)amino]-N-phenyl-6,7,8,9-tetrahydro-5H-pyrimido[4,5-b]indole-6-carboxamide] | 313
30 | COc1ccc(F)cc1Nc1ncnc2[nH]c3c(c12)CC(C(=O)O)CC3 (racemic) [Example 181, (RS)-4-[(5-Fluoro-2-methoxyphenyl)amino]-6,7,8,9-tetrahydro-5H-pyrimido[4,5-b]indole-6-carboxylic acid] | 1100
31 | COc1cc2[nH]c(=O)sc2cc1Nc1ncnc2[nH]c3c(c12)CC(F)(F)CC3 [Example 238, 6-[(6,6-Difluoro-6,7,8,9-tetrahydro-5H-pyrimido[4,5-b]indol-4-yl)amino]-5-methoxy-1,3-benzothiazol-2(3H)-one] | 10
32 | CS(=O)(=O)CCCNC(=O)C1CCc2[nH]c3ncnc(Nc4ccc(F)c5[nH]c(=O)ccc45)c3c2C1 (racemic) [Example 82, (RS)-4-[(8-Fluoro-2-oxo-1,2-dihydroquinolin-5-yl)amino]-N-[3-(methylsulfonyl)propyl]-6,7,8,9-tetrahydro-5H-pyrimido[4,5-b]indole-6-carboxamide] | 10500
33 | CS(=O)(=O)CCCNC(=O)C1CCc2[nH]c3ncnc(Nc4ccccc4OC(F)(F)F)c3c2C1 (racemic) [Example 32, (RS)—N-[3-(Methylsulfonyl)propyl]-4-{[2-(trifluoromethoxy)phenyl]amino}-6,7,8,9-tetrahydro-5H-pyrimido[4,5-b]indole-6-carboxamide] | 746
34 | COc1cc(N2CCOCC2)ccc1Nc1ncnc2[nH]c3c(c12)CC(C(=O)NCCCS(C)(=O)=O)CC3 (racemic) [Example 71, (RS)-4-{[2-Methoxy-4-(morpholin-4-yl)phenyl]amino}-N-[3-(methylsulfonyl)propyl]-6,7,8,9-tetrahydro-5H-pyrimido[4,5-b]indole-6-carboxamide] | 10800
